Molecular target: T1, Bcl-2 protein (Recombinant Human Bcl-2 Protein) (Homo sapiens, UniProt P10415)
T1 construct: purchased Novus NBP2-34889
Assay: Binding evaluation of mixture library compounds to Bcl-2 using AS-MS (affinity selection mass spectrometry)
Conditions: AS-MS, mixture library, Bcl-2, ASMS Ratio(%)=(A−C)/B×100; for ASMS ratio (%) n = 1: replicate n = 1; for ASMS ratio (%) n = 2: replicate n = 2
Summary of the method: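 Readout is ASMS Ratio (%), (A−C)/B×100, from reversed-phase LC/MS of SEC-passed extracts, with protein-free unfiltered standard (B) and protein-free SEC blank (C). Recombinant human Bcl-2 at 20 μM final met ~1200 pooled compounds at […] each for 1 h, 23° C., dark, in Tris-HCl pH 7.4 buffer.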

T1 sequence (P10415 whole entry): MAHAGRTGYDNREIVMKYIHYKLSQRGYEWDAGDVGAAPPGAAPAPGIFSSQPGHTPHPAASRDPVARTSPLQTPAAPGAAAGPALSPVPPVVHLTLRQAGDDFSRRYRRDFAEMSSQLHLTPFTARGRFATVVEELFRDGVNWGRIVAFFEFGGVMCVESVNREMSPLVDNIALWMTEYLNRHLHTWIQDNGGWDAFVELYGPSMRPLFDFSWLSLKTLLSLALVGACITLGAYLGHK

Structure (SMILES)	ASMS ratio (%) n = 1 [%]	ASMS ratio (%) n = 2 [%]
CCOc1cncc(C#Cc2cc(C(=O)N3CCN(c4ccc(C(=O)NS(=O)(=O)c5ccc(NCCSc6ccccc6)c([N+](=O)[O-])c5)cc4)CC3)cc(C(F)(F)F)c2)c1 [B2Q042-01, 4-[4-[3-[2-(5-Ethoxypyridin-3-yl)ethynyl]-5-(trifluoromethyl)benzoyl]piperazin-1-yl]-N-[3-nitro-4-(2-phenylsulfanylethylamino)phenyl]sulfonylbenzamide]	26.1	19.5
CCOc1cccc(-c2cnn(-c3cc(C(=O)N4CCN(c5ccc(C(=O)NS(=O)(=O)c6ccc(NCCSc7ccccc7)c([N+](=O)[O-])c6)cc5)CC4)cc(C(F)(F)F)c3)c2)c1 [B2Q043-01, 4-[4-[3-[4-(3-Ethoxyphenyl)pyrazol-1-yl]-5-(trifluoromethyl)benzoyl]piperazin-1-yl]-N-[3-nitro-4-(2-phenylsulfanylethylamino)phenyl]sulfonylbenzamide]	12.4	−13.4
CCOc1cncc(-c2cnn(-c3cc(C(=O)N4CCN(c5ccc(C(=O)NS(=O)(=O)c6ccc(NCCSc7ccccc7)c([N+](=O)[O-])c6)cc5)CC4)cc(C(F)(F)F)c3)c2)c1 [B2Q044-01, 4-[4-[3-[4-(5-Ethoxypyridin-3-yl)pyrazol-1-yl]-5-(trifluoromethyl)benzoyl]piperazin-1-yl]-N-[3-nitro-4-(2-phenylsulfanylethylamino)phenyl]sulfonylbenzamide]	11.0	−1.3
CCOc1cccc(-c2ccc(CN3CCN(c4ccc(C(=O)NS(=O)(=O)c5ccc(NCCSc6ccccc6)c([N+](=O)[O-])c5)cc4)CC3)c(CC)c2)c1 [B2Q049-01, 4-[4-[[4-(3-Ethoxyphenyl)-2-ethylphenyl]methyl]piperazin-1-yl]-N-[3-nitro-4-(2-phenylsulfanylethylamino)phenyl]sulfonylbenzamide]	−2.4	−4.8
CCOc1cncc(-c2ccc(CN3CCN(c4ccc(C(=O)NS(=O)(=O)c5ccc(NCCSc6ccccc6)c([N+](=O)[O-])c5)cc4)CC3)c(CC)c2)c1 [B2Q050-01, 4-[4-[[4-(5-Ethoxypyridin-3-yl)-2-ethylphenyl]methyl]piperazin-1-yl]-N-[3-nitro-4-(2-phenylsulfanylethylamino)phenyl]sulfonylbenzamide]	0.0	0.0
CCOc1cccc(-c2ccc(CN3CCN(c4ccc(C(=O)NS(=O)(=O)c5ccc(NCCSc6ccccc6)c([N+](=O)[O-])c5)cc4)CC3)cc2F)c1 [B2Q051-01, 4-[4-[[4-(3-Ethoxyphenyl)-3-fluorophenyl]methyl]piperazin-1-yl]-N-[3-nitro-4-(2-phenylsulfanylethylamino)phenyl]sulfonylbenzamide]	22.6	2.1
CCOc1cncc(-c2ccc(CN3CCN(c4ccc(C(=O)NS(=O)(=O)c5ccc(NCCSc6ccccc6)c([N+](=O)[O-])c5)cc4)CC3)cc2F)c1 [B2Q052-01, 4-[4-[[4-(5-Ethoxypyridin-3-yl)-3-fluorophenyl]methyl]piperazin-1-yl]-N-[3-nitro-4-(2-phenylsulfanylethylamino)phenyl]sulfonylbenzamide]	22.8	13.9
CCOc1cccc(-c2cc(CN3CCN(c4ccc(C(=O)NS(=O)(=O)c5ccc(NCCSc6ccccc6)c([N+](=O)[O-])c5)cc4)CC3)cc(OCC)c2)c1 [B2Q055-01, 4-[4-[[3-Ethoxy-5-(3-ethoxyphenyl)phenyl]methyl]piperazin-1-yl]-N-[3-nitro-4-(2-phenylsulfanylethylamino)phenyl]sulfonylbenzamide]	9.0	−8.3
CCOc1cncc(-c2cc(CN3CCN(c4ccc(C(=O)NS(=O)(=O)c5ccc(NCCSc6ccccc6)c([N+](=O)[O-])c5)cc4)CC3)cc(OCC)c2)c1 [B2Q056-01, 4-[4-[[3-Ethoxy-5-(5-ethoxypyridin-3-yl)phenyl]methyl]piperazin-1-yl]-N-[3-nitro-4-(2-phenylsulfanylethylamino)phenyl]sulfonylbenzamide]	7.3	2.8
CCOc1cccc(-c2cc(CN3CCN(c4ccc(C(=O)NS(=O)(=O)c5ccc(NCCSc6ccccc6)c([N+](=O)[O-])c5)cc4)CC3)cc(OC(C)C)c2)c1 [B2Q057-01, 4-[4-[[3-(3-Ethoxyphenyl)-5-propan-2-yloxyphenyl]methyl]piperazin-1-yl]-N-[3-nitro-4-(2-phenylsulfanylethylamino)phenyl]sulfonylbenzamide]	17.5	4.4
CCOc1cncc(-c2cc(CN3CCN(c4ccc(C(=O)NS(=O)(=O)c5ccc(NCCSc6ccccc6)c([N+](=O)[O-])c5)cc4)CC3)cc(OC(C)C)c2)c1 [B2Q058-01, 4-[4-[[3-(5-Ethoxypyridin-3-yl)-5-propan-2-yloxyphenyl]methyl]piperazin-1-yl]-N-[3-nitro-4-(2-phenylsulfanylethylamino)phenyl]sulfonylbenzamide]	3.7	3.7
CCOc1cccc(-c2cc(OC)c(CN3CCN(c4ccc(C(=O)NS(=O)(=O)c5ccc(NCCSc6ccccc6)c([N+](=O)[O-])c5)cc4)CC3)c(OC)c2)c1 [B2Q059-01, 4-[4-[[4-(3-Ethoxyphenyl)-2,6-dimethoxyphenyl]methyl]piperazin-1-yl]-N-[3-nitro-4-(2-phenylsulfanylethylamino)phenyl]sulfonylbenzamide]	9.8	7.0
CCOc1cncc(-c2cc(OC)c(CN3CCN(c4ccc(C(=O)NS(=O)(=O)c5ccc(NCCSc6ccccc6)c([N+](=O)[O-])c5)cc4)CC3)c(OC)c2)c1 [B2Q060-01, 4-[4-[[4-(5-Ethoxypyridin-3-yl)-2,6-dimethoxyphenyl]methyl]piperazin-1-yl]-N-[3-nitro-4-(2-phenylsulfanylethylamino)phenyl]sulfonylbenzamide]	0.0	0.0
CCOc1cccc(-c2cc(CN3CCN(c4ccc(C(=O)NS(=O)(=O)c5ccc(NCCSc6ccccc6)c([N+](=O)[O-])c5)cc4)CC3)cc(C(F)(F)F)c2)c1 [B2Q061-01, 4-[4-[[3-(3-Ethoxyphenyl)-5-(trifluoromethyl)phenyl]methyl]piperazin-1-yl]-N-[3-nitro-4-(2-phenylsulfanylethylamino)phenyl]sulfonylbenzamide]	15.6	−17.9
CCOc1cncc(-c2cc(CN3CCN(c4ccc(C(=O)NS(=O)(=O)c5ccc(NCCSc6ccccc6)c([N+](=O)[O-])c5)cc4)CC3)cc(C(F)(F)F)c2)c1 [B2Q062-01, 4-[4-[[3-(5-Ethoxypyridin-3-yl)-5-(trifluoromethyl)phenyl]methyl]piperazin-1-yl]-N-[3-nitro-4-(2-phenylsulfanylethylamino)phenyl]sulfonylbenzamide]	9.4	−3.3
CCOc1cccc(-c2cc(CN3CCN(c4ccc(C(=O)NS(=O)(=O)c5ccc(NCCSc6ccccc6)c([N+](=O)[O-])c5)cc4)CC3)cc(OC(F)(F)F)c2)c1 [B2Q063-01, 4-[4-[[3-(3-Ethoxyphenyl)-5-(trifluoromethoxy)phenyl]methyl]piperazin-1-yl]-N-[3-nitro-4-(2-phenylsulfanylethylamino)phenyl]sulfonylbenzamide]	13.3	−25.5
CCOc1cncc(-c2cc(CN3CCN(c4ccc(C(=O)NS(=O)(=O)c5ccc(NCCSc6ccccc6)c([N+](=O)[O-])c5)cc4)CC3)cc(OC(F)(F)F)c2)c1 [B2Q064-01]	8.6	−1.6
CCOc1cccc(-c2ccc(CN3CCN(c4ccc(C(=O)NS(=O)(=O)c5ccc(NCCSc6ccccc6)c([N+](=O)[O-])c5)cc4)CC3)c3ccccc23)c1 [B2Q065-01]	30.6	−1.6
CCOc1cccc(C#Cc2ccccc2CN2CCN(c3ccc(C(=O)NS(=O)(=O)c4ccc(NCCSc5ccccc5)c([N+](=O)[O-])c4)cc3)CC2)c1 [B2Q069-01]	8.8	11.0
CCOc1cncc(C#Cc2ccccc2CN2CCN(c3ccc(C(=O)NS(=O)(=O)c4ccc(NCCSc5ccccc5)c([N+](=O)[O-])c4)cc3)CC2)c1 [B2Q070-01, 4-[4-[[2-[2-(5-Ethoxypyridin-3-yl)ethynyl]phenyl]methyl]piperazin-1-yl]-N-[3-nitro-4-(2-phenylsulfanylethylamino)phenyl]sulfonylbenzamide]	14.3	−9.0
CCOc1cccc(-c2ccccc2CN2CCN(c3ccc(C(=O)NS(=O)(=O)c4ccc(NCCSc5ccccc5)c([N+](=O)[O-])c4)nn3)CC2)c1 [B2Q071-01, 6-[4-[[2-(3-Ethoxyphenyl)phenyl]methyl]piperazin-1-yl]-N-[3-nitro-4-(2-phenylsulfanylethylamino)phenyl]sulfonylpyridazine-3-carboxamide]	25.0	11.2
CCOc1cncc(-c2ccccc2CN2CCN(c3ccc(C(=O)NS(=O)(=O)c4ccc(NCCSc5ccccc5)c([N+](=O)[O-])c4)nn3)CC2)c1 [B2Q072-01, 6-[4-[[2-(5-Ethoxypyridin-3-yl)phenyl]methyl]piperazin-1-yl]-N-[3-nitro-4-(2-phenylsulfanylethylamino)phenyl]sulfonylpyridazine-3-carboxamide]	10.2	11.4
CCOc1cccc(-c2ccc(CN3CCN(c4ccc(C(=O)NS(=O)(=O)c5ccc(NCCSc6ccccc6)c([N+](=O)[O-])c5)nn4)CC3)cc2C)c1 [B2Q073-01]	0.0	0.0

From patent US20240132431A1, “METHOD FOR ALKYLATING ACIDIC FUNCTIONAL GROUP” (Chugai Seiyaku Kabushiki Kaisha, priority 2021, published 2024)
